Data: EP1247803A2, “Indolinone compounds suitable for modulation of protein kinases” (Sugen, Inc., priority 1996, dated 1998)

How the values were obtained:
EGFR = target: T1, EGFR (Homo sapiens, UniProt P00533); test: EGFR ELISA assay (in vitro kinase activity, EGFR captured from A431 cell lysate); format: biochemical; design: concentration or dose not given beside the values
T1 construct: Add 7 ug A431 cell lysate per well (EGFR source); endogenous in cells; host or cells: A431
Outline: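 EGFR from A431 lysate was captured on anti-EGFR antibody-coated plates and preincubated with compounds for 30 min. Autophosphorylation ran 5 min with 3 uM ATP and 5 mM MnCl2 (final), stopped with 20 mM EDTA. Phosphotyrosine was detected by anti-pTyr ELISA with ABTS/H2O2, read at 410 nm.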

PDGF-R = PDGF-R (Homo sapiens, UniProt P09619); test: PDGF-R ELISA; format: cell-based
Chain of PDGF-R (P09619 33-1106, species assumed): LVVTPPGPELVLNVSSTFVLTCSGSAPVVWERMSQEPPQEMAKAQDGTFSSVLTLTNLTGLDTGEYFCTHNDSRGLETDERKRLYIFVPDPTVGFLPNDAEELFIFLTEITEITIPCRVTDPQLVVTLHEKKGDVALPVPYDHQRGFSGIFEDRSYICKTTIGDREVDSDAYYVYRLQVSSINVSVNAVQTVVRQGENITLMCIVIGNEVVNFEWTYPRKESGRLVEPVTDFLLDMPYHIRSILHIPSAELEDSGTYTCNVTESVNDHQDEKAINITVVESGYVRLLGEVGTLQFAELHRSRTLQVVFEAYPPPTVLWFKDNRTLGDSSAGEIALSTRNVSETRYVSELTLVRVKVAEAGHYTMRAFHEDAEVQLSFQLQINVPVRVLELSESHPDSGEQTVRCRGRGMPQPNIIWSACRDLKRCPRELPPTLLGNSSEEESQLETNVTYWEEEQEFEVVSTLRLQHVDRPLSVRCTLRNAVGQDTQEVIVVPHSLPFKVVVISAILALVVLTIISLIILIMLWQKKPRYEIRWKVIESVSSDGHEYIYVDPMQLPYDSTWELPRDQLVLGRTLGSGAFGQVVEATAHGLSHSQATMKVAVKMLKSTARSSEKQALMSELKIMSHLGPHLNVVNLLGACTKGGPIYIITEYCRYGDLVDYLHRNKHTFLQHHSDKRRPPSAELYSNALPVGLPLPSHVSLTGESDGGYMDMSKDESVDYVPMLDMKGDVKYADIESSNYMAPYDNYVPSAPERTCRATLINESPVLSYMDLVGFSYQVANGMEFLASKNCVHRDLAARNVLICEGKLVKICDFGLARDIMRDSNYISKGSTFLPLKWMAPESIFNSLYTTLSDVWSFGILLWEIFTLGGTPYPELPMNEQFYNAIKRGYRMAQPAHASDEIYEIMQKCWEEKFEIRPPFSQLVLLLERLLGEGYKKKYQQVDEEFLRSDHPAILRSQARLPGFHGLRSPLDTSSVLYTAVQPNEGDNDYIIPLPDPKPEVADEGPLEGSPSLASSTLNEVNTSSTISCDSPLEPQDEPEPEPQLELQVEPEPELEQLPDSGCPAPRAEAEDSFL
Excerpt: A PDGF-R ELISA is described in International Patent Publication No. WO 96/40116, published December 19, 1996 by Tang et al.

T1 sequence (P00533 25-1210): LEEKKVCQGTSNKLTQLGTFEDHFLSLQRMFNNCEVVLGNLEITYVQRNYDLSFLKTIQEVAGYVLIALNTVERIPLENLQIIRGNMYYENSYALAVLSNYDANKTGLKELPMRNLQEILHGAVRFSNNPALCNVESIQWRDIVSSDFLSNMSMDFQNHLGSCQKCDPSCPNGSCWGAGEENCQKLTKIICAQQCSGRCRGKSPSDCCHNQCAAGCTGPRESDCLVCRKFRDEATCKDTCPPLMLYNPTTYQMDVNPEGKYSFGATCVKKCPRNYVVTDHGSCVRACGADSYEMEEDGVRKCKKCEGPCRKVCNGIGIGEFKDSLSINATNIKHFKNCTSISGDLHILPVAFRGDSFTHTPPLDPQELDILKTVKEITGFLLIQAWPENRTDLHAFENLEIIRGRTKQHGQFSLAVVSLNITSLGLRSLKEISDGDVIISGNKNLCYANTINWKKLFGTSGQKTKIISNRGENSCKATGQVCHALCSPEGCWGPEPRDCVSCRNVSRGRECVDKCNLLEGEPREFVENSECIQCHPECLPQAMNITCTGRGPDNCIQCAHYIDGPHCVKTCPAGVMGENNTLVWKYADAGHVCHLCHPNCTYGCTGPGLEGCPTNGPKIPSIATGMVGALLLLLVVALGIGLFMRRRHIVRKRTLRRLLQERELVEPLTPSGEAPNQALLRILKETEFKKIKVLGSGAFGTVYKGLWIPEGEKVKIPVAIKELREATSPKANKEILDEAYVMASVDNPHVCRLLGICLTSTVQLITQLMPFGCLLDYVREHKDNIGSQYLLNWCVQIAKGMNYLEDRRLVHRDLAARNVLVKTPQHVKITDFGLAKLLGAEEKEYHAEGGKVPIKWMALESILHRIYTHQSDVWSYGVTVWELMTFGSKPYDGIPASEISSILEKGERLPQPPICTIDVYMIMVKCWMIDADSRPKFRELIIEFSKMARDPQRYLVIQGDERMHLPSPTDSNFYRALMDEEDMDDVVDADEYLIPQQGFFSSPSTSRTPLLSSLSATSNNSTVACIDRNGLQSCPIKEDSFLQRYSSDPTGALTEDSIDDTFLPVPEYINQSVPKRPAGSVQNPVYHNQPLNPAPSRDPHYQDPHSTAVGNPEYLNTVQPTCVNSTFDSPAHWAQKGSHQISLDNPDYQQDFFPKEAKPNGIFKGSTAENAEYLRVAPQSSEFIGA

Row | SMILES | Biochem EGFR %Inhibition (EGFR) [%] | PDGF Kinase %Inhibition (PDGF-R)
1 | Cc1[nH]c(C=C2C(=O)Nc3ccc(CCCl)cc32)c(Br)c1Br [10717/G11] | 71.7 | 
2 | CCOC(=O)c1c(C)[nH]c(C=C2C(=O)Nc3c(Br)cc(Br)cc32)c1C [10718/A02] | 11.3 | 
3 | COc1cc(Br)c(O)c(C=C2C(=O)Nc3c(Br)cc(Br)cc32)c1 [10718/A03] | -6.1 | 
4 | O=C1Nc2c(Br)cc(Br)cc2C1=Cc1ccc2ccccc2c1O [10718/A04] | 27.3 | 
5 | CCOC(=O)CCc1c(C(=O)OCC)[nH]c(C=C2C(=O)Nc3c(Br)cc(Br)cc32)c1CC(=O)OCC [10718/A05] | -6.9 | 
6 | CCOC(=O)c1cc(C=C2C(=O)Nc3c(Br)cc(Br)cc32)oc1C [10718/A06] | 19.4 | 
7 | COC(=O)c1[nH]c(C)c(C=C2C(=O)Nc3c(Br)cc(Br)cc32)c1C(=O)OC [10718/A07] | -10.6 | 
8 | O=C1Nc2c(Br)cc(Br)cc2C1=Cc1ccc(Cl)c([N+](=O)[O-])c1 [10718/A08] | 5.8 | 
9 | CNS(=O)(=O)c1ccc2c(c1)C(=Cc1cc(Cl)cc(Br)c1O)C(=O)N2 [10727/D04] | 39.6 | 6.4%
10 | CNS(=O)(=O)c1ccc2c(c1)C(=Cc1ccccc1Sc1ccc(Cl)cc1)C(=O)N2 [10727/D05] | 3.4 | -0.1%
11 | CNS(=O)(=O)c1ccc2c(c1)C(=Cc1cc3c(cc1Cl)OCO3)C(=O)N2 [10727/D06] | 8.6 | 10.8%
12 | CNS(=O)(=O)c1ccc2c(c1)C(=Cc1coc3ccccc3c1=O)C(=O)N2 [10727/D07] | 10.5 | -14.7%
13 | CNS(=O)(=O)c1ccc2c(c1)C(=Cc1cccc(C#N)c1)C(=O)N2 [10727/D08] | -0.5 | 5.0 ! %
14 | CNS(=O)(=O)c1ccc2c(c1)C(=Cc1ccc(C#N)cc1)C(=O)N2 [10727/D09] | 15.1 | 7.2%
15 | CNS(=O)(=O)c1ccc2c(c1)C(=Cc1cc(O)ccc1O)C(=O)N2 [10727/D10] | 86.2 | 9.4%
16 | CNS(=O)(=O)c1ccc2c(c1)C(=Cc1cccc(OC)c1OC)C(=O)N2 [10727/D11] | -23.7 | 17.4%
17 | CCN(CC)c1ccc(C=C2C(=O)Nc3ccc(S(=O)(=O)Nc4ccc(C(F)(F)F)cc4)cc32)cc1 [10727/E02] | 22.4 | -6.7%
18 | CCc1cc(CC)c(C=C2C(=O)Nc3ccc(S(=O)(=O)Nc4ccc(C(F)(F)F)cc4)cc32)[nH]1 [10727/E03] | 35.5 | 5.7%
19 | O=C1Nc2ccc(S(=O)(=O)Nc3ccc(C(F)(F)F)cc3)cc2C1=Cc1cc(Cl)cc(Br)c1O [10727/E04] | 82.1 | -7.4%
20 | O=C1Nc2ccc(S(=O)(=O)Nc3ccc(C(F)(F)F)cc3)cc2C1=Cc1ccccc1Sc1ccc(Cl)cc1 [10727/E05] | 12.9 | -7.4%
21 | O=C1Nc2ccc(S(=O)(=O)Nc3ccc(C(F)(F)F)cc3)cc2C1=Cc1cc2c(cc1Cl)OCO2 [10727/E06] | -9.3 | 9.4%

Row | SMILES | Biochem EGFR %Inhibition (EGFR) [%] | PDGF Kinase %Inhibition (PDGF-R)
22 | O=C1Nc2ccc(S(=O)(=O)Nc3ccc(C(F)(F)F)cc3)cc2C1=Cc1coc2ccccc2c1=O [10727/E07] | 7.1 | 10.1%
23 | N#Cc1cccc(C=C2C(=O)Nc3ccc(S(=O)(=O)Nc4ccc(C(F)(F)F)cc4)cc32)c1 [10727/E08] | 25.6 | 23.9%
24 | N#Cc1ccc(C=C2C(=O)Nc3ccc(S(=O)(=O)Nc4ccc(C(F)(F)F)cc4)cc32)cc1 [10727/E09] | 15.1 | 15.9%
25 | O=C1Nc2ccc(S(=O)(=O)Nc3ccc(C(F)(F)F)cc3)cc2C1=Cc1cc(O)ccc1O [10727/E10] | 85.1 | 5.0%
26 | COc1cccc(C=C2C(=O)Nc3ccc(S(=O)(=O)Nc4ccc(C(F)(F)F)cc4)cc32)c1OC [10727/E11] | -33.4 | 7.9%
27 | CCN(CC)c1ccc(C=C2C(=O)Nc3ccc(S(=O)(=O)N4CCOCC4)cc32)cc1 [10727/F02] | -0.5 | 11.5%
28 | CCc1cc(CC)c(C=C2C(=O)Nc3ccc(S(=O)(=O)N4CCOCC4)cc32)[nH]1 [10727/F03] | 36.8 | -3.7%
29 | O=C1Nc2ccc(S(=O)(=O)N3CCOCC3)cc2C1=Cc1cc(Cl)cc(Br)c1O [10727/F04] | 17.9 | -10.3%
30 | O=C1Nc2ccc(S(=O)(=O)N3CCOCC3)cc2C1=Cc1ccccc1Sc1ccc(Cl)cc1 [10727/F05] | -9.1 | -3.7%
31 | O=C1Nc2ccc(S(=O)(=O)N3CCOCC3)cc2C1=Cc1cc2c(cc1Cl)OCO2 [10727/F06] | 4.9 | 8.6%
32 | O=C1Nc2ccc(S(=O)(=O)N3CCOCC3)cc2C1=Cc1coc2ccccc2c1=O [10727/F07] | -8.9 | 2.1%
33 | N#Cc1cccc(C=C2C(=O)Nc3ccc(S(=O)(=O)N4CCOCC4)cc32)c1 [10727/F08] | -5.4 | 10.1%
34 | N#Cc1ccc(C=C2C(=O)Nc3ccc(S(=O)(=O)N4CCOCC4)cc32)cc1 [10727/F09] | -2.0 | 21.7%
35 | O=C1Nc2ccc(S(=O)(=O)N3CCOCC3)cc2C1=Cc1cc(O)ccc1O [10727/F10] | 74.1 | 9.4%
36 | COc1cccc(C=C2C(=O)Nc3ccc(S(=O)(=O)N4CCOCC4)cc32)c1OC [10727/F11] | -2.6 | 18.1%
37 | CCN(CC)c1ccc(C=C2C(=O)Nc3ccc(CCCl)cc32)cc1 [10727/G02] | 37.5 | -20.5%
38 | CCc1cc(CC)c(C=C2C(=O)Nc3ccc(CCCl)cc32)[nH]1 [10727/G03] | 19.4 | -10.3%
39 | O=C1Nc2ccc(CCCl)cc2C1=Cc1cc(Cl)cc(Br)c1O [10727/G04] | 80.6 | -27.0%
40 | O=C1Nc2ccc(CCCl)cc2C1=Cc1ccccc1Sc1ccc(Cl)cc1 [10727/G05] | 11.2 | -2.3%
41 | O=C1Nc2ccc(CCCl)cc2C1=Cc1cc2c(cc1Cl)OCO2 [10727/G06] | -12.1 | -12.5%
42 | O=C1Nc2ccc(CCCl)cc2C1=Cc1coc2ccccc2c1=O [10727/G07] | 5.4 | -24.1%

Row | SMILES | Biochem EGFR %Inhibition (EGFR) [%] | PDGF Kinase %Inhibition (PDGF-R)
43 | N#Cc1cccc(C=C2C(=O)Nc3ccc(CCCl)cc32)c1 [10727/G08] | -19.6 | -7.4%
44 | N#Cc1ccc(C=C2C(=O)Nc3ccc(CCCl)cc32)cc1 [10727/G09] | -9.7 | 10.8%
45 | O=C1Nc2ccc(CCCl)cc2C1=Cc1cc(O)ccc1O [10727/G10] | 85.1 | 10.8%
46 | COc1cccc(C=C2C(=O)Nc3ccc(CCCl)cc32)c1OC [10727/G11] | -3.5 | 15.9%
47 | COc1ccc(OC)c(C=C2C(=O)Nc3c(Br)cc(Br)cc32)c1 [10728/A02] | 9.2 | -7.9%
48 | COc1cccc(OC)c1C=C1C(=O)Nc2c(Br)cc(Br)cc21 [10728/A03] | -25.8 | -7.9%
49 | COc1cc(C=C2C(=O)Nc3c(Br)cc(Br)cc32)cc(OC)c1 [10728/A04] | 28.0 | 15.6%
50 | COc1cc(N(C)C)ccc1C=C1C(=O)Nc2c(Br)cc(Br)cc21 [10728/A05] | 17.7 | 4.5%
51 | O=C1Nc2c(Br)cc(Br)cc2C1=Cc1ccc2c(c1)Cc1ccccc1-2 [10728/A06] | 17.2 | -3.1%
52 | O=C1Nc2c(Br)cc(Br)cc2C1=Cc1cccc(C(F)(F)F)c1F [10728/A07] | 59.6 | 31.1%
53 | O=C1Nc2c(Br)cc(Br)cc2C1=Cc1cc(C(F)(F)F)ccc1F [10728/A08] | 24.1 | 0.5%
54 | O=C1Nc2c(Br)cc(Br)cc2C1=Cc1c(F)cccc1C(F)(F)F [10728/A09] | 19.3 | 10.3%
55 | O=C(O)COc1ccccc1C=C1C(=O)Nc2c(Br)cc(Br)cc21 [10728/A10] | -3.4 | 1.8%
56 | COc1cc(C=C2C(=O)Nc3c(Br)cc(Br)cc32)cc2c1OCO2 [10728/A11] | -0.6 | -9.3%
57 | COc1ccc(OC)c(C=C2C(=O)Nc3ccc(I)cc32)c1 [10728/B02] | -10.5 | -0.4%
58 | COc1cccc(OC)c1C=C1C(=O)Nc2ccc(I)cc21 [10728/B03] | -36.6 | 10.3%
59 | COc1cc(C=C2C(=O)Nc3ccc(I)cc32)cc(OC)c1 [10728/B04] | -2.0 | 9.8%
60 | COc1cc(N(C)C)ccc1C=C1C(=O)Nc2ccc(I)cc21 [10728/B05] | 26.9 | 9.4%
61 | O=C1Nc2ccc(I)cc2C1=Cc1cccc(C(F)(F)F)c1F [10728/B07] | 11.1 | 20.9%
